Where two headings read alike, the source gives them in different places.
Experiments:
A431 (EGFR-WT) cells = assay: Inhibitory activity on proliferation of A431 (EGFR-WT) cells (CTG, 72 h); type: cell-based; conditions: Homo sapiens, A-431
Procedure: NCI-H1975 (EGFR-L858R-T790M) and A431 (EGFR-WT) cells were purchased from ATCC and cultured in an incubator at 37° C. with 5% CO2, and the culture mediums were RPMI1640+10% FBS and DMEM+10% FBS, respectively. On the first day, NCI-H1975 (EGFR-L858R-T790M) and A431 (EGFR-WT) cells in the logarithmic phase were collected, and viable cells were counted using an automatic cell analyzer (countstar). The cell suspensions were adjusted with the culture mediums and plated on a 96-well cell culture plate at 1000 cells/well for NCI-H1975 (EGFR-L858R-T790M) cells and at 3000 cells/well for A431 cells. The next day, the culture mediums were aspirated, and 90 μL of fresh culture mediums and 10 μL of the compounds at different concentrations were added to each well, wherein the final concentration of DMSO in each well was 0.1%. The plate was cultured in the incubator at 37° C. with 5% CO2 for 72 hours. After 72 hours of drug treatment, 50 μL of CTG solution (promega, G7572), which was already pre-melted and equilibrated to room temperature, was added to each well, and the mixtures were uniformly mixed for 2 min using a microplate shaker. The plate was placed at room temperature for 10 min, and then […] signal values were measured using a microplate reader (PHERAstar FSX).
Surviving cells % was calculated based on Vsample/Vvehicle control×100%, wherein Vsample was the readout of the drug-treated group, and Vvehicle control was the average value of the vehicle control group. Using the origin 9.2 software and nonlinear regression model, S-shaped dose-survival curves were plotted, and IC50 values were calculated.

[1] = tested on: NCI-H1975 (EGFR-L858R-T790M) cells; assay: Inhibitory activity on proliferation of NCI-H1975 (EGFR-L858R-T790M) cells (CTG, 72 h); type: cell-based; conditions: Homo sapiens
How it was run: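 Cells plated at 1000/well (NCI-H1975, RPMI1640+10% FBS) or 3000/well (A431, DMEM+10% FBS), dosed next day with compounds (0.1% DMSO final) for 72 h at 37 °C, 5% CO2. Viability by CTG luminescence, normalised to vehicle control; IC50 from nonlinear-regression dose-survival curves.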

[2] = read-out: IC50 (value in brackets)

SMILES	IC50 (A431 (EGFR-WT) cells)	IC50 ([1]; read-out: IC50 (class symbol))	IC50 [1, 2]
COc1cc(N2CCN(C3CCC4(CC3)CCN(c3ccc5c(c3)C(=O)N(C3CCC(=O)NC3=O)C5=O)CC4)CC2)c(-c2cnn(C)c2)cc1Nc1ncc(Br)c(Nc2ccc(-c3ccccc3)cc2P(C)(C)=O)n1 (stereo not drawn) [Compound 85, 5-(9-(4-(4-((5-bromo-4-((3-(dimethylphosphoryl)-[1,1′-biphenyl]-4-yl)amino)pyrimidin-2-yl)amino)-5-methoxy-2-(1-methyl-1H-pyrazol-4-yl)phenyl)piperazin-1-yl)-3-azaspiro [5.5]undecan-3-yl)-2-(2,6-dioxopiperidin-3-yl)isoindoline-1,3-dione]	≥ 10000 nM	< 100 nM	77 nM
COc1cc(N2CCC(N3CCC(CN4CCN(c5ccc6c(c5)C(=O)N(C5CCC(=O)NC5=O)C6=O)CC4)CC3)CC2)c(C2CC2)cc1Nc1ncc(Br)c(Nc2ccc3nccnc3c2P(C)(C)=O)n1 (stereo not drawn) [Compound 24, 5-(4-((1′-(4-((5-bromo-4-((5-(dimethylphosphoryl)quinoxalin-6-yl)amino)pyrimidin-2-yl)amino)-2-cyclopropyl-5-methoxyphenyl)-[1,4′-bipiperidin]-4-yl)methyl)piperazin-1-yl)-2-(2,6-dioxopiperidin-3-yl)isoindoline-1,3-dione]	≥ 10000 nM	100 to 500 nM	163 nM
COc1cc(N2CCC3(CCN(c4ccc5c(c4)C(=O)N(C4CCC(=O)NC4=O)C5=O)CC3)CC2)c(-c2cnn(C)c2)cc1Nc1ncc(Br)c(Nc2ccc(-c3ccccc3)cc2P(C)(C)=O)n1 (stereo not drawn) [Compound 79, 5-(9-(4-((5-bromo-4-((3-(dimethylphosphoryl)-[1,1′-biphenyl]-4-yl)amino)pyrimidin-2-yl)amino)-5-methoxy-2-(1-methyl-1H-pyrazol-4-yl)phenyl)-3,9-diazaspiro[5.5]undecan-3-yl)-2-(2,6-dioxopiperidin-3-yl)isoindoline-1,3-dione]	≥ 10000 nM	100 to 500 nM	314 nM
COc1cc(N2CCC(C3CCN(CC4CCN(c5ccc6c(c5)C(=O)N(C5CCC(=O)NC5=O)C6=O)CC4)CC3)CC2)c(-c2cnn(C)c2)cc1Nc1ncc(Cl)c(Nc2ccc(-c3ccccc3)cc2P(C)(C)=O)n1 (stereo not drawn) [Compound 41, 5-(4-((1′-(4-((5-chloro-4-((3-(dimethylphosphoryl)-[1,1′-biphenyl]-4-yl)amino)pyrimidin-2-yl)amino)-5-methoxy-2-(1-methyl-1H-pyrazol-4-yl)phenyl)-[4,4′-bipiperidin]-1-yl)methyl)piperidin-1-yl)-2-(2,6-dioxopiperidin-3-yl)isoindoline-1,3-dione]	≥ 10000 nM	100 to 500 nM	353 nM
COc1cc(N2CCN(C[C@H]3CCN(c4ccc5c(c4)C(=O)N(C4CCC(=O)NC4=O)C5=O)C3)CC2)c(-c2cnn(C)c2)cc1Nc1ncc(Br)c(Nc2ccc(C3CC3)cc2P(C)(C)=O)n1 (stereo partly drawn) [Compound 121, 5-((R)-3-((4-(4-((5-bromo-4-((4-cyclopropyl-2-(dimethylphosphoryl)phenyl)amino)pyrimidin-2-yl)amino)-5-methoxy-2-(1-methyl-1H-pyrazol-4-yl)phenyl)piperazin-1-yl)methyl)pyrrolidin-1-yl)-2-(2,6-dioxopiperidin-3-yl)isoindoline-1,3-dione]	≥ 10000 nM	< 100 nM	16 nM
CCn1cc(-c2cc(Nc3ncc(Cl)c(Nc4ccc(-c5ccccc5)cc4P(C)(C)=O)n3)c(OC)cc2N2CCC(CN3CCN(c4ccc5c(c4)C(=O)N(C4CCC(=O)NC4=O)C5=O)CC3)CC2)cn1 (stereo not drawn) [Compound 110, 5-(4-((1-(4-((5-chloro-4-((3-(dimethylphosphoryl)-[1,1′-biphenyl]-4-yl)amino)pyrimidin-2-yl)amino)-2-(1-ethyl-1H-pyrazol-4-yl)-5-methoxyphenyl)piperidin-4-yl)methyl)piperazin-1-yl)-2-(2,6-dioxopiperidin-3-yl)isoindoline-1,3-dione]	≥ 10000 nM	100 to 500 nM	232 nM
COc1cc(N2CCN(C[C@H]3CCN(c4ccc5c(c4)C(=O)N(C4CCC(=O)NC4=O)C5=O)C3)CC2)c(-c2cnn(C)c2)cc1Nc1ncc(Cl)c(Nc2ccc(-c3ccccc3)cc2P(C)(C)=O)n1 (stereo partly drawn) [Compound 118, 5-((R)-3-((4-(4-((5-chloro-4-((3-(dimethylphosphoryl)-[1,1′-biphenyl]-4-yl)amino)pyrimidin-2-yl)amino)-5-methoxy-2-(1-methyl-1H-pyrazol-4-yl)phenyl)piperazin-1-yl)methyl)pyrrolidin-1-yl)-2-(2,6-dioxopiperidin-3-yl)isoindoline-1,3-dione]	≥ 10000 nM	< 100 nM	40 nM
COc1cc(N2CCC(CN3CC4CN(c5ccc6c(c5)C(=O)N(C5CCC(=O)NC5=O)C6=O)CC4C3)CC2)c(-c2cnn(C)c2)cc1Nc1ncc(Br)c(Nc2ccc(-c3ccccc3)cc2P(C)(C)=O)n1 (stereo not drawn) [Compound 78, 5-(5-((1-(4-((5-bromo-4-((3-(dimethylphosphoryl)-[1,1′-biphenyl]-4-yl)amino)pyrimidin-2-yl)amino)-5-methoxy-2-(1-methyl-1H-pyrazol-4-yl)phenyl)piperidin-4-yl)methyl)hexahydropyrrolo[3,4-c]pyrrol-2(1H)-yl)-2-(2,6-dioxopiperidin-3-yl)isoindoline-1,3-dione]	≥ 10000 nM	< 100 nM	51 nM
COc1cc(N2CCN(C3CCN(CC4CCN(c5cc6c(cc5F)C(=O)N(C5CCC(=O)NC5=O)C6=O)CC4)CC3)CC2)c(-c2cnn(C)c2)cc1Nc1ncc(Cl)c(Nc2ccc(-c3ccccc3)cc2P(C)(C)=O)n1 (stereo not drawn) [Compound 50, 5-(4-((4-(4-(4-((5-chloro-4-((3-(dimethylphosphoryl)-[1,1′-biphenyl]-4-yl)amino)pyrimidin-2-yl)amino)-5-methoxy-2-(1-methyl-1H-pyrazol-4-yl)phenyl)piperazin-1-yl)piperidin-1-yl)methyl)piperidin-1-yl)-2-(2,6-dioxopiperidin-3-yl)-6-fluoroisoindoline-1,3-dione]	≥ 10000 nM	100 to 500 nM	133 nM

Now from value to compound:

IC50 (A431 (EGFR-WT) cells)	IC50 ([1]; read-out: IC50 (class symbol))	IC50 [1, 2]	SMILES
≥ 10000 nM	< 100 nM	40 nM	COc1cc(N2CCN(C3CN(c4ccc5c(c4)C(=O)N(C4CCC(=O)NC4=O)C5=O)C3)CC2)c(-c2cnn(C)c2)cc1Nc1ncc(Br)c(Nc2ccc(C3CC3)cc2P(C)(C)=O)n1 (stereo not drawn) [Compound 150, 5-(3-(4-(4-((5-bromo-4-((4-cyclopropyl-2-(dimethylphosphoryl)phenyl)amino)pyrimidin-2-yl)amino)-5-methoxy-2-(1-methyl-1H-pyrazol-4-yl)phenyl)piperazin-1-yl)azetidin-1-yl)-2-(2,6-dioxopiperidin-3-yl)isoindoline-1,3-dione]
≥ 10000 nM	100 to 500 nM	134 nM	COc1cc(N2CCC3(CCN(c4ccc5c(c4)C(=O)N(C4CCC(=O)NC4=O)C5=O)CC3)CC2)c(-c2cnn(C)c2)cc1Nc1ncc(Cl)c(Nc2ccc(F)cc2P(C)(C)=O)n1 (stereo not drawn) [Compound 162, 5-(9-(4-((5-chloro-4-((2-(dimethylphosphoryl)-4-fluorophenyl)amino)pyrimidin-2-yl)amino)-5-methoxy-2-(1-methyl-1H-pyrazol-4-yl)phenyl)-3,9-diazaspiro[5.5]undecan-3-yl)-2-(2,6-dioxopiperidin-3-yl)isoindoline-1,3-dione]
≥ 10000 nM	100 to 500 nM	110 nM	COc1cc(N2CCC(C(=O)N3CCN(c4ccc5c(c4)C(=O)N(C4CCC(=O)NC4=O)C5=O)CC3)CC2)c(-c2cnn(C)c2)cc1Nc1ncc(Cl)c(Nc2ccc(C3CC3)cc2P(C)(C)=O)n1 (stereo not drawn) [Compound 143, 5-(4-(1-(4-((5-chloro-4-((4-cyclopropyl-2-(dimethylphosphoryl)phenyl)amino)pyrimidin-2-yl)amino)-5-methoxy-2-(1-methyl-1H-pyrazol-4-yl)phenyl)piperidine-4-carbonyl)piperazin-1-yl)-2-(2,6-dioxopiperidin-3-yl)isoindoline-1,3-dione]
≥ 10000 nM	< 100 nM	95 nM	COc1cc(N2CCC(C(=O)N3CCN(c4ccc5c(c4)C(=O)N(C4CCC(=O)NC4=O)C5=O)CC3)CC2)c(-c2cnn(C)c2)cc1Nc1ncc(Br)c(Nc2ccccc2P(C)(C)=O)n1 (stereo not drawn) [Compound 146, 5-(4-(1-(4-((5-bromo-4-((2-(dimethylphosphoryl)phenyl)amino)pyrimidin-2-yl)amino)-5-methoxy-2-(1-methyl-1H-pyrazol-4-yl)phenyl)piperidine-4-carbonyl)piperazin-1-yl)-2-(2,6-dioxopiperidin-3-yl)isoindoline-1,3-dione]

— patent publication US20240269298A1, “PHOSPHONYL DERIVATIVE, AND COMPOSITION AND PHARMACEUTICAL APPLICATION THEREOF” (XIZANG HAISCO PHARMACEUTICAL CO., LTD., priority 2021, published 2024)
